Results taken from US11787854B2, “Immunological targeting of pathological tau proteins” (New York University, priority 2009, dated 2023).

What was measured:
[1] = system: homozygous JNPL3 tau P301L mice; assay: Rotarod test, actively immunized JNPL3 P301L mice; type: in vivo, mouse; settings: at 5-6 months of age and at 8-9 months of age, vs adjuvant alone
Experimental: (§1) JNPL3 P301L mice received a subcutaneous injection of 100 μl followed by a second injection 2 weeks later and then monthly thereafter (unless otherwise indicated). Vaccination started at 2-3 months of age and continued until the animals were 8-9 months of age at which time the animals were perfused and their organs collected for analysis. The mice went through a battery of sensorimotor tests at 5-6 months and again at 8-9 months of age prior to sacrifice. Control mice received the adjuvant alone.
Rotarod Test: Animals were placed onto the rod (diameter 3.6 cm) apparatus to assess differences in motor coordination and balance by measuring fore- and hindlimb motor coordination and balance (Rotarod 7650 accelerating model; Ugo Basile, Biological Research Apparatus, Varese, Italy). This procedure was designed to assess motor behavior without a practice confound. The animals were habituated to the apparatus by receiving training sessions of two trials, sufficient to reach a baseline level of performance. Then, the mice were tested three additional times, with increasing speed. During habituation, the rotarod was set at 1.0 rpm, which was gradually raised every 30 sec, and was also wiped clean with 30% ethanol solution after each session. A soft foam cushion was placed beneath the apparatus to prevent potential injury from falling. […]

[2] = system: JNPL3 P301L tangle mice; settings: mouse, in vivo
[3] = system: pathological tau; assay: PHF1 immunostaining of pathological tau in brain of actively immunized JNPL3 P301L mice; type: in vivo, mouse; settings: compared to control mice receiving adjuvant only
Experimental: as §1, with “alone. […]” for “alone.”
Analysis of tissue sections was quantified with a Bioquant image analysis system. […] For quantitative image analysis of immunohistochemistry, the granular layer of the dentate gyrus was initially selected which consistently contained intraneuronal tau aggregates (pretangles and tangles). […] Four to five sections were analyzed per animal.

[4] = system: homozygous JNPL3 tau P301L mice; assay: Traverse beam test, actively immunized JNPL3 P301L mice; type: in vivo, mouse; settings: at 8 months of age, vs adjuvant alone
Experimental: as §1
Traverse Beam: This task tests balance and general motor coordination and function integration. Mice were assessed by measuring their ability to traverse a graded narrow wooden beam to reach a goal box (Torres et al., “Behavioural, Histochemical and Biochemical Consequences of Selective Immunolesions in Discrete Regions of the Basal Forebrain Cholinergic System,” Neuroscience 63:95-122 (1994), which is hereby incorporated by reference in its entirety). The mice were placed on a 1.1 cm wide beam that is 50.8 cm long and suspended 30 cm above a padded surface by two identical columns. […] Mice were placed on the beam in a perpendicular orientation to habituate and were then monitored for a maximum of 60 sec. The number of foot slips each mouse had before falling or reaching the goal box were recorded for each of four successive trials. Errors are defined as footslips and were recorded numerically.

| Substance | functional impairment, rotarod test [1] | antibody response against the immunogen [2] | antibody response against the tau epitope [2] | pathological tau (PHF1 immunostaining) in the brain stem [3] | pathological tau (PHF1 immunostaining) in the dentate gyrus [3] | functional impairment, traverse beam (footslips) [4] |
| --- | --- | --- | --- | --- | --- | --- |
| IGS*TE [Tau260-264[P-Ser262]] | prevented functional impairment | robust IgG response against the immunogen | a good portion of the antibody response is also generated against the tau epitope | reduced the levels of pathological tau | reduced the levels of pathological tau | prevented functional impairment |
| RENAKAKTDHGAEIVYKXPVVSGDTXPRHL [Tau379-408[Asp396, 404]] | – | robust antibody (IgG) response | – | – | – | – |
| SRT*PS*LP [Tau210-216[P-Thr212-Ser214]] | – | robust IgG and IgM immune response | – | – | – | – |
| VRT*PPKS*PS [Tau229-237[P-Thr231-Ser235]] | – | robust antibody (IgG) response | – | – | – | – |
